Activity calls are given as the source filed them. No rule for the calls is given here. Residues, ends and D or L forms follow the SMILES beside them.
Target: Core antigen (Hepatitis B virus) (UniProt Q03732)
Test: Inhibition of Hepatitis B virus capsid formation at 100 uM treated during cell-free wild type HBV Cp synthesis using wheat germ lysates and HBV Cp RNA by Native capsid assay based western blot analysis
Format: subcellular

Chain of Core antigen (Hepatitis B virus) (Q03732 as listed by the source): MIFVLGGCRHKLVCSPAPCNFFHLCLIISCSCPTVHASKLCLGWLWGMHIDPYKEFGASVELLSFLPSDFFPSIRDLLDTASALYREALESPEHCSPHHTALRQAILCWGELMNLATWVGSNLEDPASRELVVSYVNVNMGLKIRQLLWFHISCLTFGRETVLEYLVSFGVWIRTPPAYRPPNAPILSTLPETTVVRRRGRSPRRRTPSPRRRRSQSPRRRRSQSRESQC

Structure (SMILES)	inhibition
CC(=O)N1CCC[C@H]1C(=O)N[C@@H](CCCNC(=N)N)C(=O)N[C@@H](CCCNC(=N)N)C(=O)N[C@@H](CCCNC(=N)N)C(=O)N[C@@H](CCCNC(=N)N)C(=O)N[C@@H](CO)C(=O)N[C@@H](CCC(N)=O)C(=O)N[C@@H](CO)C(=O)N[C@@H](CCCNC(=N)N)C(=O)N[C@@H](CCC(=O)O)C(=O)N[C@@H](CO)C(=O)N[C@@H](CCC(N)=O)C(=O)N[C@@H](CS)C(N)=O (Ac-PRRRRSQSRESQC-NH2)	inactive
CC(=O)N1CCC[C@H]1C(=O)N[C@@H](CCCNC(=N)N)C(=O)N[C@@H](CCCNC(=N)N)C(=O)N[C@@H](CCCNC(=N)N)C(=O)N[C@H](C(=O)N1CCC[C@H]1C(=O)N[C@@H](CO)C(=O)N1CCC[C@H]1C(=O)N[C@@H](CCCNC(=N)N)C(=O)N[C@@H](CCCNC(=N)N)C(=O)N[C@@H](CCCNC(=N)N)C(=O)N[C@@H](CCCNC(=N)N)C(=O)N[C@@H](CO)C(=O)N[C@@H](CCC(N)=O)C(=O)N[C@@H](CO)C(N)=O)[C@@H](C)O (Ac-PRRRTPSPRRRRSQS-NH2)	inactive
CC(=O)N1CCC[C@H]1C(=O)N[C@@H](CO)C(=O)N1CCC[C@H]1C(=O)N[C@@H](CCCNC(=N)N)C(=O)N[C@@H](CCCNC(=N)N)C(=O)N[C@@H](CCCNC(=N)N)C(=O)N[C@@H](CCCNC(=N)N)C(=O)N[C@@H](CO)C(=O)N[C@@H](CCC(N)=O)C(=O)N[C@@H](CO)C(=O)N1CCC[C@H]1C(=O)N[C@@H](CCCNC(=N)N)C(=O)N[C@@H](CCCNC(=N)N)C(=O)N[C@@H](CCCNC(=N)N)C(=O)N[C@@H](CCCNC(=N)N)C(N)=O (Ac-PSPRRRRSQSPRRRR-NH2)	inactive
CC(=O)N[C@@H](CCC(N)=O)C(=O)N[C@@H](CO)C(=O)N1CCC[C@H]1C(=O)N[C@@H](CCCNC(=N)N)C(=O)N[C@@H](CCCNC(=N)N)C(=O)N[C@@H](CCCNC(=N)N)C(=O)N[C@@H](CCCNC(=N)N)C(=O)N[C@@H](CO)C(=O)N[C@@H](CCC(N)=O)C(=O)N[C@@H](CO)C(=O)N[C@@H](CCCNC(=N)N)C(=O)N[C@@H](CCC(=O)O)C(=O)N[C@@H](CO)C(=O)N[C@@H](CCC(N)=O)C(=O)N[C@@H](CS)C(N)=O (Ac-QSPRRRRSQSRESQC-NH2)	inactive
CC(=O)N[C@@H](CCCNC(=N)N)C(=O)N[C@@H](CCCNC(=N)N)C(=O)NCC(=O)N[C@@H](CCCNC(=N)N)C(=O)N[C@@H](CO)C(=O)N1CCC[C@H]1C(=O)N[C@@H](CCCNC(=N)N)C(=O)N[C@@H](CCCNC(=N)N)C(=O)N[C@@H](CCCNC(=N)N)C(=O)N[C@H](C(=O)N1CCC[C@H]1C(=O)N[C@@H](CO)C(=O)N1CCC[C@H]1C(=O)N[C@@H](CCCNC(=N)N)C(=O)N[C@@H](CCCNC(=N)N)C(N)=O)[C@@H](C)O (Ac-RRGRSPRRRTPSPRR-NH2)	inactive
CC(=O)N[C@@H](CCCNC(=N)N)C(=O)N[C@@H](CCCNC(=N)N)C(=O)N[C@@H](CO)C(=O)N[C@@H](CCC(N)=O)C(=O)N[C@@H](CO)C(=O)N1CCC[C@H]1C(=O)N[C@@H](CCCNC(=N)N)C(=O)N[C@@H](CCCNC(=N)N)C(=O)N[C@@H](CCCNC(=N)N)C(=O)N[C@@H](CCCNC(=N)N)C(=O)N[C@@H](CO)C(=O)N[C@@H](CCC(N)=O)C(=O)N[C@@H](CO)C(=O)N[C@@H](CCCNC(=N)N)C(=O)N[C@@H](CCC(=O)O)C(N)=O (Ac-RRSQSPRRRRSQSRE-NH2)	inactive
CC(=O)N[C@@H](CO)C(=O)N[C@@H](CS)C(=O)N[C@@H](CC(C)C)C(=O)N[C@H](C(=O)N[C@@H](Cc1ccccc1)C(=O)NCC(=O)N[C@@H](CCCNC(=N)N)C(=O)N[C@@H](CCC(=O)O)C(=O)N[C@H](C(=O)N[C@H](C(=O)N[C@@H](CC(C)C)C(=O)N[C@@H](CCC(=O)O)C(=O)N[C@@H](Cc1ccc(O)cc1)C(=O)N[C@@H](CC(C)C)C(=O)N[C@H](C(N)=O)C(C)C)C(C)C)[C@@H](C)O)[C@@H](C)O (Ac-SCLTFGRETVLEYLV-NH2)	inactive
CC(=O)N[C@H](C(=O)N[C@H](C(=O)N[C@H](C(=O)N[C@H](C(=O)N[C@@H](CCCNC(=N)N)C(=O)N[C@@H](CCCNC(=N)N)C(=O)N[C@@H](CCCNC(=N)N)C(=O)NCC(=O)N[C@@H](CCCNC(=N)N)C(=O)N[C@@H](CO)C(=O)N1CCC[C@H]1C(=O)N[C@@H](CCCNC(=N)N)C(=O)N[C@@H](CCCNC(=N)N)C(=O)N[C@@H](CCCNC(=N)N)C(=O)N[C@H](C(N)=O)[C@@H](C)O)C(C)C)C(C)C)[C@@H](C)O)[C@@H](C)O (Ac-TTVVRRRGRSPRRRT-NH2)	inactive
CSCC[C@H](NC(=O)[C@H](CC(N)=O)NC(=O)[C@@H](NC(=O)[C@H](CC(N)=O)NC(=O)[C@@H](NC(=O)[C@H](Cc1ccc(O)cc1)NC(=O)[C@H](CO)NC(=O)[C@@H](NC(C)=O)C(C)C)C(C)C)C(C)C)C(=O)NCC(=O)N[C@@H](CC(C)C)C(=O)N[C@@H](CCCCN)C(=O)N[C@@H](Cc1ccccc1)C(=O)N[C@@H](CCCNC(=N)N)C(=O)N[C@@H](CCC(N)=O)C(=O)N[C@@H](CC(C)C)C(N)=O (Ac-VSYVNVNMGLKFRQL-NH2)	inactive
CC(C)C[C@H](NC(=O)[C@H](C)NC(=O)[C@@H](NC(=O)[C@H](Cc1c[nH]cn1)NC(=O)[C@H](Cc1c[nH]cn1)NC(=O)[C@@H]1CCCN1C(=O)[C@H](CO)NC(=O)[C@H](CS)NC(=O)[C@H](Cc1c[nH]cn1)NC(=O)[C@H](CCC(=O)O)NC(=O)[C@@H]1CCCN1C(=O)[C@H](CO)NC(=O)[C@H](CCC(=O)O)NC(=O)[C@H](CC(C)C)NC(=O)[C@H](C)N)[C@@H](C)O)C(N)=O (H-ALESPEHCSPHHTAL-NH2)	inactive
CC(C)C[C@H](NC(=O)[C@H](C)N)C(=O)N[C@@H](Cc1ccc(O)cc1)C(=O)N[C@@H](CCCNC(=N)N)C(=O)N[C@@H](CCC(=O)O)C(=O)N[C@@H](C)C(=O)N[C@@H](CC(C)C)C(=O)N[C@@H](CCC(=O)O)C(=O)N[C@@H](CO)C(=O)N1CCC[C@H]1C(=O)N[C@@H](CCC(=O)O)C(=O)N[C@@H](Cc1c[nH]cn1)C(=O)N[C@@H](CS)C(=O)N[C@@H](CO)C(=O)N1CCC[C@H]1C(N)=O (H-ALYREALESPEHCSP-NH2)	inactive
CC[C@H](C)[C@H](NC(=O)[C@@H]1CCCN1C(=O)[C@H](C)NC(=O)[C@H](CC(N)=O)NC(=O)[C@@H]1CCCN1C(=O)[C@@H]1CCCN1C(=O)[C@H](CCCNC(=N)N)NC(=O)[C@H](Cc1ccc(O)cc1)NC(=O)[C@H](C)N)C(=O)N[C@@H](CC(C)C)C(=O)N[C@@H](CO)C(=O)N[C@H](C(=O)N[C@@H](CC(C)C)C(=O)N1CCC[C@H]1C(=O)N[C@@H](CCC(=O)O)C(N)=O)[C@@H](C)O (H-AYRPPNAPILSTLPE-NH2)	inactive
CC[C@H](C)[C@H](NC(=O)[C@H](C)NC(=O)[C@H](CCC(N)=O)NC(=O)[C@@H]1CCCN1C(=O)[C@H](CC(C)C)NC(=O)[C@H](C)NC(=O)[C@@H](NC(=O)[C@H](Cc1c[nH]cn1)NC(=O)[C@H](Cc1c[nH]cn1)NC(=O)[C@@H]1CCCN1C(=O)[C@H](CO)NC(=O)[C@H](CS)NC(=O)[C@H](Cc1c[nH]cn1)NC(=O)[C@@H](N)CCC(=O)O)[C@@H](C)O)C(=O)N[C@@H](CC(C)C)C(N)=O (H-EHCSPHHTALPQAIL-NH2)	inactive
CC(C)C[C@H](NC(=O)[C@H](Cc1ccc(O)cc1)NC(=O)[C@H](CCC(=O)O)NC(=O)[C@H](CC(C)C)NC(=O)[C@@H](NC(=O)[C@@H](NC(=O)[C@H](CCC(=O)O)NC(=O)[C@H](CCCNC(=N)N)NC(=O)CN)[C@@H](C)O)C(C)C)C(=O)N[C@H](C(=O)N[C@@H](CO)C(=O)N[C@@H](Cc1ccccc1)C(=O)NCC(=O)N[C@H](C(=O)N[C@@H](Cc1c[nH]c2ccccc12)C(N)=O)C(C)C)C(C)C (H-GRETVLEYLVSFGVW-NH2)	inactive

— ChEMBL document CHEMBL6103552, “Identification of peptide-based hepatitis B virus capsid inhibitors based on the viral core protein” (Bioorg Med Chem Lett, 2025)
